We go through 1 compound from ChEMBL document CHEMBL1148096, “Ophirapstanol trisulfate, a new biologically active steroid sulfate from the deep water marine sponge Topsentia ophiraphidites” (J Nat Prod, 1994).

In the assay the target is GTPase HRas (Homo sapiens, UniProt P01112). Kind of assay: Inhibition of human recombinant p21RAS by GDPX assay.

SMILES strings stand for the structures.

Sequence of GTPase HRas (P01112 whole entry): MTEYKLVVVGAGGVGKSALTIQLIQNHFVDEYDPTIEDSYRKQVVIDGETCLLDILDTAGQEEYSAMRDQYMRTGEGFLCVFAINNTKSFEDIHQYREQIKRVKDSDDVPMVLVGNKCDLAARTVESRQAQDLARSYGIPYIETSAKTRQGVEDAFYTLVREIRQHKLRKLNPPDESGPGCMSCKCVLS

Turning to `CC(C)C(C)(C)C(C)CC[C@@H](C)[C@H]1CC[C@H]2[C@@H]3C[C@H](OS(=O)(=O)O)C4C[C@H](OS(=O)(=O)O)[C@@H](OS(=O)(=O)O)C[C@]4(C)[C@H]3CC[C@]12C` (stereo partly specified) [OPHIRAPSTANOL TRISULFATE], the IC50 was 2550 nM.
